Measured values from PMC11944670, “Reshaping [^99mTc]Tc-DT11 to DT14D Tagged with Trivalent Radiometals for NTS1R-Positive Cancer Theranostics” (Pharmaceutics, 2025).
Residues, ends and D or L forms follow the SMILES beside them. *: point of attachment. DOTA = O=C(O)CN1CCN(CC(=O)O)CCN(CC(=O)*)CCN(CC(=O)O)CC1; X1 = Cc1ccc(CCCC(=O)NCCOCCOCCOCCOCC(=O)*)cc1; βAla = NCCC(=O)O

System: NTS1R-positive AsPC-1 xenografts
Assay: in vivo
Parameters: species or system mice
Conditions: male, SCID, mouse, iv
Description: The distribution of [^67Ga]Ga/[^111In]In/[^177Lu]Lu-DT14D was investigated in male severe combined immunodeficiency (SCID) mice (49 mice in total, 6 weeks of age on arrival date, 22 ± 4 g, NCSR “Demokritos” Animal House, Athens, Greece) bearing NTS1R-positive AsPC-1 xenografts in their flanks. For xenograft induction, suspensions of freshly harvested AsPC-1 cells (5 × 10^6 cells in 150 µL sterile PBS) were subcutaneously injected into the mice’s flanks. The animals were kept under aseptic conditions and 4 weeks later developed well palpable masses at the inoculation sites (100 ± 50 mg) and biodistribution was conducted. On the day of the experiment, the animals received a bolus (100 μL, in vehicle: saline/EtOH 9/1 v/v) containing the radioligand via the tail vein. The following groups of four animals per time point, per treatment, were included per radioligand (the 4 h block groups comprised 3 animals instead) including the respective (radio)ligand amounts injected: i. 78–91 kBq [^67Ga]Ga-DT14D corresponding to 7–17 pmol DT14D at 1 and 4 h pi plus 4 h block (coinjection with 100 µg NT); ii. 74–92 kBq [^111In]In-DT14D corresponding to 20–25 pmol at 4 h (controls), 4 h pi (Entresto®; animals receiving a slurry of 12 mg/200 µL Entresto® oral gavage 30 min in advance) and 4 h block (coinjection with 100 µg NT); 24 h pi (including both controls and Entresto® mice groups); and iii. 730 kBq [^177Lu]Lu-DT14D corresponding to 40 pmol DT14D at 4, 24, 48, and 72 h pi plus 4 h block (co-injection with 100 µg NT). The animals were euthanized at predetermined time intervals, dissected and blood samples, organs of interest, and tumors were collected, weighed, and counted in the gamma counter. Biodistribution data were calculated as percent of the injected activity per gram tissue (%IA/g) with the aid of suitable standards of the administered activity. Results as the mean %IA/g values ± sd were obtained and statistical analysis was performed with PRISM^TM GraphPad—10.2 Software (San Diego, CA/USA), applying 2-way ANOVA with Tukey’s post hoc analysis, or, in the case of two variables, Šídák’s multiple comparisons test was adopted; differences with p < 0.05 were considered as statistically significant.

Row | Compound | Biodistribution, Blood (4 h) [%IA/g] | Biodistribution, Femur (4 h) [%IA/g] | Biodistribution, Heart (4 h) [%IA/g] | Biodistribution, Intestines (4 h) [%IA/g] | Biodistribution, Kidneys (4 h) [%IA/g] | Biodistribution, Liver (4 h) [%IA/g] | Biodistribution, Lungs (4 h) [%IA/g] | Biodistribution, Muscle (4 h) [%IA/g] | Biodistribution, Pancreas (4 h) [%IA/g] | Biodistribution, Spleen (4 h) [%IA/g] | Tumor/Blood ratio (4 h) | Tumor/Heart ratio (4 h) | Tumor/Intestines ratio (4 h) | Tumor/Liver ratio (4 h) | Tumor/Muscle ratio (4 h) | Tumor/Pancreas ratio (4 h) | Tumor/Spleen ratio (4 h) | Biodistribution, Stomach (4 h) [%IA/g] | Biodistribution, Femur (24 h) [%IA/g] | Biodistribution, Intestines (24 h) [%IA/g] | also measured
1 | CC[C@H](C)[C@H](NC(=O)[C@H](Cc1ccc(O)cc1)NC(=O)[C@@H]1CCCN1C(=O)[C@H](CCCNC(=N)N)NC(=O)[C@H](CCCNC(=N)N)NC(=O)[C@H](CCCCNC(=O)COCCOCCOCCOCCNC(=O)CCCc1ccc(C)cc1)NC(=O)CCNC(=O)CCNC(=O)CCNC(=O)CN1CCN(CC(=O)O)CCN(CC(=O)O)CCN(CC(=O)O)CC1)C(=O)N[C@@H](CC(C)C)C(=O)O [[^67Ga]Ga-DT14D] [metal not drawn] ({DOTA-βAla-βAla-βAla}-K(X1)RRPYIL-OH) | 2.15 ± 0.40 | 1.67 ± 0.36 | 0.76 ± 0.12 | 2.32 ± 0.39 | 3.87 ± 0.96 | 3.44 ± 0.15 | 1.34 ± 0.20 | 0.27 ± 0.04 | 0.51 ± 0.08 | 1.75 ± 0.67 | 2.06 ± 0.21 | 5.75 ± 0.17 | 1.89 ± 0.06 | 1.28 ± 0.24 | 16.50 ± 2.36 | 8.69 ± 0.52 | 2.50 ± 0.23 |  |  |  | 
2 | CC[C@H](C)[C@H](NC(=O)[C@H](Cc1ccc(O)cc1)NC(=O)[C@@H]1CCCN1C(=O)[C@H](CCCNC(=N)N)NC(=O)[C@H](CCCNC(=N)N)NC(=O)[C@H](CCCCNC(=O)COCCOCCOCCOCCNC(=O)CCCc1ccc(C)cc1)NC(=O)CCNC(=O)CCNC(=O)CCNC(=O)CN1CCN(CC(=O)O)CCN(CC(=O)O)CCN(CC(=O)O)CC1)C(=O)N[C@@H](CC(C)C)C(=O)O [[^111In]In-DT14D] [metal not drawn] ({DOTA-βAla-βAla-βAla}-K(X1)RRPYIL-OH) | 0.66 ± 0.19 | 0.50 ± 0.06 | 0.28 ± 0.06 | 1.34 ± 0.06 |  | 0.45 ± 0.04 | 0.79 ± 0.12 | 0.13 ± 0.03 | 0.24 ± 0.04 | 0.84 ± 0.07 |  |  |  |  |  |  |  | 0.39 ± 0.05 | 1.35 ± 0.36 | 0.69 ± 0.09 | Biodistribution, Blood (24 h): 0.46 ± 0.08 %IA/g; Biodistribution, Heart (24 h): 0.62 ± 0.23 %IA/g; Biodistribution, Liver (24 h): 0.33 ± 0.08 %IA/g; Biodistribution, Lungs (24 h): 0.61 ± 0.09 %IA/g; Biodistribution, Muscle (24 h): 0.40 ± 0.10 %IA/g; Biodistribution, Pancreas (24 h): 0.63 ± 0.39 %IA/g; Biodistribution, Spleen (24 h): 1.59 ± 0.14 %IA/g; Biodistribution, Stomach (24 h): 0.27 ± 0.10 %IA/g; Tumor/Intestines ratio (24 h): 3.16 ± 0.49; Tumor/Kidneys ratio (24 h): 1.42 ± 0.25; Tumor/Spleen ratio (24 h): 1.84 ± 0.15
3 | CC[C@H](C)[C@H](NC(=O)[C@H](Cc1ccc(O)cc1)NC(=O)[C@@H]1CCCN1C(=O)[C@H](CCCNC(=N)N)NC(=O)[C@H](CCCNC(=N)N)NC(=O)[C@H](CCCCNC(=O)COCCOCCOCCOCCNC(=O)CCCc1ccc(C)cc1)NC(=O)CCNC(=O)CCNC(=O)CCNC(=O)CN1CCN(CC(=O)O)CCN(CC(=O)O)CCN(CC(=O)O)CC1)C(=O)N[C@@H](CC(C)C)C(=O)O [[^177Lu]Lu-DT14D] [metal not drawn] ({DOTA-βAla-βAla-βAla}-K(X1)RRPYIL-OH) | 0.72 ± 0.19 | 0.45 ± 0.06 | 0.32 ± 0.09 | 1.27 ± 0.14 | 3.24 ± 0.20 | 1.34 ± 0.14 | 1.63 ± 0.86 | 0.11 ± 0.02 | 0.21 ± 0.03 | 1.36 ± 0.37 | 5.51± 1.56 | 12.36 ± 3.08 | 2.99 ± 0.57 | 2.83 ± 0.45 | 34.86 ± 6.98 | 18.16 ± 3.31 | 2.83 ± 0.35 | 0.33 ± 0.12 | 0.34 ± 0.03 | 0.45 ± 0.03 | Tumor/Kidneys ratio (4 h): 1.17 ± 0.15; Tumor/Lungs ratio (4 h): 2.97 ± 1.75; Tumor/Stomach ratio (4 h): 12.29 ± 3.81; Biodistribution, Liver (24 h): 1.18 ± 0.18 %IA/g; Biodistribution, Lungs (24 h): 0.17 ± 0.01 %IA/g; Biodistribution, Muscle (24 h): 0.03 ± 0.00 %IA/g; Biodistribution, Spleen (24 h): 1.06 ± 0.16 %IA/g; Tumor/Blood ratio (24 h): 33.51 ± 2.94; Tumor/Heart ratio (24 h): 25.00 ± 3.78; Tumor/Intestines ratio (24 h): 3.95 ± 0.39; Tumor/Kidneys ratio (24 h): 1.46 ± 0.33; Tumor/Liver ratio (24 h): 1.54 ± 0.32; Tumor/Lungs ratio (24 h): 9.32 ± 2.56; Tumor/Muscle ratio (24 h): 58.07 ± 8.34; Tumor/Pancreas ratio (24 h): 22.31 ± 1.64; Tumor/Spleen ratio (24 h): 1.70 ± 0.32; Tumor/Stomach ratio (24 h): 31.97 ± 8.07
